Assay type in all cases: cell-based
Experiment [1] deals with human lymphoma cell line Raji. The experiment in a line: Inhibition of cell proliferation (GI50), Raji. Particulars: Homo sapiens; Raji cells, 48 h, CellTiter-Glo. The gist of the method:
(§1)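 Cells at 4.4×10^4 cells/mL were exposed to test compound (1 nM to 10 μM final) in RPMI-1640 with DMSO for 48 h at 37 °C, 5% CO2. Viability was read by CellTiter-Glo luminescence. GI50 is where (Ltest−LStart)/(LMax−LStart)=0.5, with LStart a 0.5 h baseline and LMax untreated cells.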

Experiment [2] concerns human cancer cell line H1299. The experiment in a line: Caspase cascade activation (EC50), H1299. As to conditions: NCI-H1299, H1299 cells, read-out: caspase potency (EC50) H1299. Put shortly: (§2)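 EC50 values derive from a sigmoidal fit of net fluorescence (3 h reading minus control T=0 background) relative to untreated control. The 3 h room-temperature read used 14 μM DEVD-R110 substrate with lysolecithin, DTT and pH 7.2 PIPES buffer at 485/530 nm. Beforehand, cells were treated 48 h at 37° C with 0.016-10 μM final compound.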

Experiment [3] has as its system human breast cancer cell line T-47D. The experiment is described as follows: Caspase cascade activation (EC50), T-47D. Particulars: Homo sapiens; T47D cells; caspase cascade activation; read-out: caspase potency (EC50) T47D. Put shortly:
as §2

For experiment [4], the system named is human colon carcinoma cell line HCT116. The experiment in a line: Inhibition of cell proliferation (GI50), HCT116. Particulars: Homo sapiens; HCT 116 cells, 48 h, CellTiter-Glo. The gist of the method: as §1
On the technique in general: Cellular ATP, detected with luciferase, serves as a proxy for viable cell number.

Experiment [5] has as its system human leukemia cell line K562. The experiment is described as follows: Inhibition of cell proliferation (GI50), K562. As to conditions: Homo sapiens; K562 cells, 48 h, CellTiter-Glo. The gist of the method: as §1
Experiment [6] has as its system human Burkitt's lymphoma cell line Namalwa. The experiment in a line: Caspase cascade activation (EC50), Namalwa. As to conditions: Homo sapiens, Burkitts lymphoma cell; Namalwa cells; caspase cascade activation; read-out: caspase potency (EC50) Namalwa. The gist of the method:
as §2

In experiment [7] the test system is human lymphoma cell line Raji. The experiment in a line: Caspase cascade activation (EC50), Raji. As to conditions: Homo sapiens, RAJI cells, read-out: caspase potency (EC50) RAJI. Put shortly:
as §2

Experiment [8] concerns human hepatocellular carcinoma cell line SNU398. The experiment is described as follows: Caspase cascade activation (EC50), SNU398. Particulars: Homo sapiens, SNU-398; SNU398 cells; caspase cascade activation; read-out: caspase potency (EC50) SNU398. The gist of the method: as §2
The subject of experiment [9] is human B cell lymphoblastoid cell line Ramos. The experiment in a line: Inhibition of cell proliferation (GI50), Ramos. Particulars: Homo sapiens; Ramos cells, 48 h, CellTiter-Glo. Put shortly: as §1
The test system is the same in experiment [10]. The experiment is described as follows: Caspase cascade activation (EC50), Ramos. Particulars: Homo sapiens, RAMOS cells, read-out: caspase potency (EC50) RAMOS. The gist of the method:
as §2

The test system of experiment [11] is human colon carcinoma cell line HCT116. The experiment in a line: Caspase cascade activation (EC50), HCT116. Particulars: Homo sapiens, HCT-116; HCT116 cells; caspase cascade activation; read-out: caspase potency (EC50) HCT116. The gist of the method: as §2
The subject of experiment [12] is human Burkitt's lymphoma cell line Namalwa. The experiment is described as follows: Inhibition of cell proliferation (GI50), Namalwa. As to conditions: Homo sapiens, Burkitts lymphoma cell; Namalwa cells, 48 h, CellTiter-Glo. Put shortly: as §1
Experiment [13] concerns human lung cancer cell line H1299. The experiment is described as follows: Inhibition of cell proliferation (GI50), H1299. As to conditions: NCI-H1299, H1299 cells, 48 h, CellTiter-Glo. As to the method: (§3) Human breast cancer cell lines T-47D, human hepatocellular carcinoma cell line SNU398, human colon carcinoma cell line HCT116, human lung cancer cell line H1299, human leukemia cell line K562, human lymphoma cell line Raji, human B cell lymphoblastoid cell line Ramos, and human Burkitt's lymphoma cell line Namalwa were grown and harvested as in Example 100. An aliquot of […] of cells (4.4×10^4 cells/mL) was added to a well of a 96-well microtiter plate containing 5 μL of a 10% DMSO in RPMI-1640 media solution containing 10 nM to 100 μM of 3-(2-chlorophenyl)-6-(3,4-methylenedioxyphenyl)-7H-[1,2,4]triazolo[3,4-b][1,3,4]thiadiazine (1 nM to 10 μM final). An aliquot of 45 μL of cells was added to a well of a 96-well microtiter plate containing 5 μL of a 10% DMSO in RPMI-1640 media solution without compound as the control sample for maximal cell proliferation (LMax). The samples were mixed by agitation and then incubated at 37° C. for 48 h in a 5% CO2-95% humidity incubator. After incubation, the samples were removed from the incubator and 25 μL of CellTiter-Glo™ reagent (Promega) was added. The samples were mixed by agitation and incubated at room temperature for 10-15 min. Plates were then read using a luminescent plate reader (Model SPECTRAfluor Plus, Tecan) to give Ltest values.
(§4) The samples were mixed by agitation and then incubated at 37° C. for 0.5 h in a 5% CO2-95% humidity incubator. After incubation, the samples were removed from the incubator and 25 μL of CellTiter-Glo™ reagent (Promega) was added. The samples were mixed by agitation and incubated at […] 10-15 min at room temperature in a 5% CO2-95% humidity incubator. Fluorescence was read as above, (LStart) defining luminescence for initial cell number used as baseline in GI50 determinations.
(§5) Calculation: GI50 (dose for 50% inhibition of cell proliferation) is the concentration where [(Ltest−LStart)/(LMax−LStart)]=0.5.

Experiment [14] relates to human breast cancer cell line T-47D. The experiment is described as follows: Inhibition of cell proliferation (GI50), T47D. Particulars: Homo sapiens; T47D cells, 48 h, CellTiter-Glo. The gist of the method:
as §1

Experiment [15] has as its system human hepatocellular carcinoma cell line SNU398. The experiment is described as follows: Inhibition of cell proliferation (GI50), SNU398. Particulars: Homo sapiens; SNU 398 cells, 48 h, CellTiter-Glo. Put shortly:
as §1

Experiment [16] deals with murine leukemia cell line P388. The experiment is described as follows: Inhibition of cell proliferation (GI50), P388. Particulars: Mus musculus; P388 cells. As to the method: as §3, §4, §5
(§6) Several compounds were tested in human sarcoma cell line MES-SA and multi-drug resistant (MDR) human sarcoma cell line MES-SA/ADR, murine leukemia cell line P388 and multi-drug resistant (MDR) murine leukemia cell line P388/ADR, and the data are summarized in Table III.

Experiment [17] concerns multi-drug resistant (MDR) murine leukemia cell line P388/ADR. The experiment is described as follows: Inhibition of cell proliferation (GI50), P388/ADR. As to conditions: Mus musculus; P388/ADR multi-drug resistant cells. As to the method:
as §3, §4, §5, §6

The subject of experiment [18] is multi-drug resistant (MDR) human sarcoma cell line MES-SA/ADR. The experiment in a line: Inhibition of cell proliferation (GI50), MES-SA/ADR. Particulars: MES-SA/ADR multi-drug resistant cells. As to the method: as §3, §4, §5, §6
The subject of experiment [19] is human sarcoma cell line MES-SA. The experiment is described as follows: Inhibition of cell proliferation (GI50), MES-SA. As to conditions: MES-SA cells. As to the method:
as §3, §4, §5, §6

We go through eight compounds from patent US20080045514A1 (Cytovia, Inc., priority 2006, published 2008).

Structures are written as SMILES.

On to `COc1ccc(C2=Nn3c(nnc3-c3cc(OC)c(OC)c(OC)c3)SC2)cc1OC` [Example L1, 3-(3,4,5-Trimethoxyphenyl)-6-(3,4-dimethoxyphenyl)-7H-[1,2,4]triazolo[3,4-b][1,3,4]thiadiazine], for which the 50% growth inhibitory concentration (GI50) (as a rule, the concentration giving 50% growth inhibition) in experiment [1] stood at 150 nM; in [4], 200 nM; in experiment [5], 163 nM; in experiment [9] it was 76 nM; in experiment [12], 243 nM; in [13] it was 339 nM. In addition, the GI50 was 200 nM in [14] and 147 nM in experiment [15]. Further, the half-maximal effective concentration (EC50) (as a rule, the concentration at which the effect is half-maximal) is 573 nM in [2]; 499 nM in [3]; 122 nM in experiment [6]; 180 nM in [7]; 132 nM in experiment [8]; 130 nM in experiment [10]. The EC50 in experiment [11] amounted to 178 nM.
Regarding `COc1ccc(C2=Nn3c(nnc3-c3cc(OC)c(OC)c(OC)c3)SC2)cc1` [Example A2, 3-(3,4,5-Trimethoxyphenyl)-6-(4-methoxyphenyl)-7H-[1,2,4]triazolo[3,4-b][1,3,4]thiadiazine], the EC50 in [3] amounted to 517 nM; in [6] it was 36 nM; in experiment [7], 49 nM; in [8] it was 36 nM; in experiment [10], 32 nM; in experiment [11], 154 nM. The GI50 was 23 nM in experiment [16], 25 nM in experiment [17], 63 nM in experiment [18] and 44 nM in [19].
For the compound `Cc1ccccc1-c1nnc2n1N=C(c1ccc3c(c1)OCO3)CS2` [Example M, 3-(2-Methylphenyl)-6-(3,4-methylenedioxyphenyl)-7H-[1,2,4]triazolo[3,4-b][1,3,4]thiadiazine], the GI50 in experiment [1] was 2220 nM; in experiment [4], 825 nM; in experiment [5] it was 239 nM; in experiment [9] it was 164 nM; in experiment [12] it was 122 nM; in [13] it was 214 nM. The GI50 in experiment [14] worked out at 124 nM. Besides, the EC50 in experiment [2] stood at 420 nM; in [3], 282 nM; in experiment [6], 144 nM; in experiment [7], 399 nM; in [8] it was 254 nM; in experiment [10], 452 nM. In addition, the concentration giving a half-maximal response (EC50) in experiment [11] amounted to 317 nM.
In the case of `COc1ccc(C2=Nn3c(nnc3-c3ccc(Cl)cc3)SC2)cc1` [D, 3-(4-Chlorophenyl)-6-(4-methoxyphenyl)-7H-[1,2,4]triazolo[3,4-b][1,3,4]thiadiazine], the GI50 came to 1500 nM in experiment [1]; 2120 nM in experiment [4]; 31 nM in experiment [5]; 21 nM in [9]; 1500 nM in experiment [12]; 42 nM in [13]. In experiment [14], this compound had a 50% growth inhibitory concentration (GI50) of 144 nM. Also, the EC50 in experiment [2] was determined as 142 nM; in experiment [3], 315 nM; in [6], 58 nM; in experiment [7], 84 nM; in experiment [8], 82 nM; in [10] it was 63 nM. Moreover, the EC50 in [11] came to 130 nM.
As to `Clc1ccccc1-c1nnc2n1N=C(c1ccc3c(c1)OCO3)CS2` [Example P, 3-(2-chlorophenyl)-6-(3,4-methylenedioxyphenyl)-7H-[1,2,4]triazolo[3,4-b][1,3,4]thiadiazine], the GI50 worked out at 426 nM in experiment [1]; 884 nM in experiment [4]; 214 nM in experiment [5]; 118 nM in [9]; 472 nM in experiment [12]; 202 nM in experiment [13]. In experiment [14], this compound gave a concentration for 50% growth inhibition (GI50) of 175 nM. In addition, the concentration for a half-maximal effect (EC50) in experiment [2] was 370 nM; in experiment [3], 235 nM; in experiment [6], 123 nM; in experiment [7], 339 nM; in experiment [8] it was 189 nM; in experiment [10] it was 289 nM. Moreover, the 50% effective concentration (EC50) in experiment [11] was determined as 231 nM.
As for `COc1ccc(C2=Nn3c(nnc3-c3ccc(Cl)cc3Cl)SC2)cc1OC` [Example G1, 3-(2,4-Dichlorophenyl)-6-(3,4-dimethoxyphenyl)-7H-[1,2,4]triazolo[3,4-b][1,3,4]thiadiazine], the 50% growth inhibitory concentration (GI50) was determined as 90 nM in [1]; 81 nM in experiment [4]; 32 nM in [5]; 45 nM in [9]; 13 nM in [12]; 48 nM in experiment [13]. Moreover, the 50% growth inhibitory concentration (GI50) in [14] stood at 130 nM; in experiment [15], 60 nM. Further, the EC50 in [2] turned out to be 277 nM; in experiment [3] it was 505 nM; in [6], 78 nM; in experiment [7], 101 nM; in experiment [8], 75 nM; in experiment [10], 107 nM. In addition, the EC50 in [11] turned out to be 231 nM.
Regarding `COc1ccccc1-c1nnc2n1N=C(c1ccc3c(c1)OCO3)CS2` [V, 3-(2-Methoxyphenyl)-6-(3,4-methylenedioxyphenyl)-7H-[1,2,4]triazolo[3,4-b][1,3,4]thiadiazine], the concentration giving a half-maximal response (EC50) in [3] was 62 nM; in [6] it was 61 nM; in [7], 81 nM; in [8] it was 68 nM; in [10], 75 nM; in experiment [11], 111 nM. For the same compound, the GI50 was determined as 31 nM in [16], 43 nM in [17], 123 nM in [18] and 83 nM in [19].
With `CCOc1ccc(C2=Nn3c(nnc3-c3ccc(Cl)cc3)SC2)cc1` [F, 3-(4-Chlorophenyl)-6-(4-ethoxyphenyl)-7H-[1,2,4]triazolo[3,4-b][1,3,4]thiadiazine], the GI50 turned out to be 136 nM in [1]; 419 nM in experiment [4]; 47 nM in [5]; 15 nM in [9]; 120 nM in experiment [12]; 58 nM in [13]. In addition, in [14], the GI50 amounted to 151 nM. Also, the half-maximal effective concentration (EC50) in [2] was found to be 275 nM; in experiment [3], 561 nM; in experiment [6], 69 nM; in [7] it was 155 nM; in experiment [8] it was 89 nM; in [10], 106 nM. For the same compound, the EC50 in [11] came out at 141 nM.
